Data on 5 molecules can be found in paper PMC3072408 (PLoS ONE, 2011).

The target of data set [1] is T1, ASAL (Allium sativum, UniProt P83886).
T1 construct: gene LECASAL; native 25-kDa homodimer
T1 sequence (P83886 31-140): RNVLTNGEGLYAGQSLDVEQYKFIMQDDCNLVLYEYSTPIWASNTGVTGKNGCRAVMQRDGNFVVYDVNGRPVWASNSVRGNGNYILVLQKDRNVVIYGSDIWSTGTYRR
Type of data set: binding. To be noted: read-out: Dissociation constant (Kd).

The target of data set [2] is T2, mASAL (Allium sativum, UniProt P83886, G129D/INS129NSNN).
T2 construct: gene LECASAL
The data set is described as follows: biochemical.
Protocol: Dissociation Constant (Kd) of mannose-bound complex using fluorescence spectroscopy
mASAL and ASAL were separately incubated at 25°C on a Hitachi F-7000 spectrofluorimeter using a Sigma cuvette (volume: 1 ml; pathlength: 1 cm). The solutions were titrated with 10 mM mannose in phosphate buffer (pH 7.2) by adding a small aliquot at a time. Following each addition, the solution was stirred using a magnetic stirrer for 1 min and the fluorescence emission spectrum was recorded between 300 and 400 nm using 295 nm as the excitation wavelength. The excitation and emission band passes were each 5 nm. […] The equation for single-site ligand binding measured through changes in the spectroscopic signal [20] is given by [drawing 1] (1) where ΔF represents the increase or decrease in fluorescence intensity at a given concentration of the ligand, K d is the dissociation constant, and A = K dΔ Fmax. We used equation (1) to calculate the dissociation constant (K d) for binding of mannose, glucose and NAG to mASAL and ASAL.

Data set [3] deals with Lipaphis erysimi. Briefly: Insect bioassay with artificial diet. The class given is in vivo. As to conditions: second instar nymphs, survival recorded for 72 h, Probit analysis. The procedure:
Insect bioassays were conducted using an artificial diet [9]–[11]. Twenty second instar nymphs of Lipaphis erysimi were used in multiple sets. Polycarbonate petriplates (perforated for air passage at the bottom) were used as a bioassay cage. Nymphs were released into the plates, and the upper edges of the plates were covered with fully stretched parafilm. A modified synthetic diet mixture of 200 µl, supplemented with different concentrations of ASAL and mASAL (5, 10, 15, 20, 25 µg/ml), was dispensed on the stretched parafilm membrane. Another Parafilm membrane was stretched onto this in order to form a pouch. For control plates, 20-mM TrisCl (pH 7.4) was added to the artificial diet instead of experimental proteins. For another set of control experiments, aphids were fed with only 20 mM TrisCl (pH 7.4) without the artificial diet. Each set of experiments for each dose was repeated four times. Data regarding the numbers of nymphs surviving were recorded at 12-h intervals for 72 h. The LC50 values for the toxicity against mustard aphids were determined by Probit analysis ( Table 2 ).

Data set [4] concerns rabbit erythrocytes. The data set is described as follows: Hemagglutination assay. Type of data set: cell-based. To be noted: 50 to 6.25 µg/ml, 2% rabbit erythrocytes, 1 hour at 37°C. The procedure: Blood was collected from the rabbit into a syringe pre-filled with 500-µl 0.9% NaCl solution and the blood was immediately transferred to a culture tube pre-filled with 0.9% saline. Subsequently, the erythrocyte solution was prepared by repeated washing with 0.9% saline and spun at 2500 g for 10 minutes at 4°C. After each cycle, the supernatant was carefully removed. […] The erythrocytes were resuspended in 0.9% saline as a 2% (3.5×10^8 cells/ml) cell suspension. Hemagglutination activity of the purified mASAL and /or ASAL was assayed in a 96-well microtiter U-plate according to a 2-fold serial dilution procedure (50, 25, 12.5, 6.25 µg/ml). The samples were diluted with PBS (137 mM NaCl, 2.7 mM KCl, 10 mM Na2HPO4, 1.8 mM KH2PO4; pH 7.4) at which point 50 µl of protein from each dilution was mixed with 50 µl of a 2% suspension of rabbit erythrocytes.

The subject of data set [5] is R. solani hyphae. The data set is described as follows: Immunolocalization assay with anti-ASAL antibody. As to conditions: 4 µg protein, 40 hours at 25°C. The class given is cell-based, Rhizoctonia solani.
The subject of data set [6] is R. solani. As to conditions: 4 µg protein, 40 hours at 25°C.
The test system of data set [7] is F. oxysporum. To be noted: 4 µg protein, 40 hours at 25°C.
Data set [8] relates to A. brassicicola. To be noted: 4 µg protein, 40 hours at 25°C.
The conditions of data set [9]: Man9GlcNAc2Asn, at 25°C; cited from earlier work.
Data set [10] concerns the molecule itself. The data set is described as follows: SEC; Biosep-SEC-S-2000 column, 0.1 M sodium phosphate pH 6.8, 2 ml/min; native ASAL as control; data not shown. In general terms: SEC sorts molecules by how far they enter the pores of the column.

Entries after “also recorded” stand apart in the source; their conditions may differ.

What is called Kd is the concentration at which binding is half-saturated. Regarding `OC[C@H]1OC(O)[C@H](O)[C@@H](O)[C@@H]1O` (stereo partly drawn) [D-glucose], the Kd in data set [1] was 140 nM; in data set [2] it was 160 nM.

As for `OC[C@H]1OC(O)[C@@H](O)[C@@H](O)[C@@H]1O` (stereo partly drawn) [Mannose, D-mannose], the dissociation constant (Kd) in [1] was determined as 60 nM; in data set [2], 120 nM.

`CC(=O)N[C@H]1C(O)O[C@H](CO)[C@@H](O)[C@@H]1O` (some centres unmarked) [NAG, N-acetyl glucosamine]: the values for the Kd in [1] and in data set [2] were 300 nM and 110 nM, respectively.

For the molecule Allium sativum leaf agglutinin [ASAL], the LC50 value in data set [3] amounted to 20.7 µg/mL. In [4], the hemagglutination activity result is reported as “agglutinated cells form a carpet”. Also, in data set [5], the “binding to fungal membrane (FITC green fluorescence)” value is listed as “absence of any signal; also recorded: no signals were generated”. The “propidium iodide uptake (fluorescence, membrane permeabilization)” value in data set [6], in data set [7] and in data set [8] was “excluded propidium iodide” in each case. Further, the “binding affinity Ka” value in data set [9] was 1.2e+06 M⁻¹.

B1: Allium sativum leaf agglutinin (natural protein)
chain: RNLLTNGEGLYAGQSLDVEQYKFIMQDDCNLVLYEYSTPIWASNTGVTGKNGCRAVMQRDGNFVVYDVNGRPVWASNSVRGNGNYILVLQKDRNVVIYGSDIWSTGT
For orientation: stoichiometry N means a count of units in the complex or per binding partner. Take B1: the “stoichiometry N” value in data set [10] worked out at 2.
